Assay results as given in paper PMC7660225, “New Chemical Probe Targeting Bacterial NAD Kinase” (Molecules, 2020).

Assays:
[1] = molecular target: T1, recombinant LmNADK1 (Listeria monocytogenes serovar 1/2a, UniProt Q8Y8D7); assay: LmNADK1 inhibition, coupling assay (Ki measurements); format: biochemical; details: for Ki: competitive inhibition fit, 30 °C, pH 7.0, inhibitor 0, 10, 25 or 50 µM, 0-2 mM NAD, 0.1 µM LmNADK1; for inhibitory potency compared to inhibitor 1 (NKI1): result in words
T1 construct: made in house
T1 sequence (Q8Y8D7 1-264): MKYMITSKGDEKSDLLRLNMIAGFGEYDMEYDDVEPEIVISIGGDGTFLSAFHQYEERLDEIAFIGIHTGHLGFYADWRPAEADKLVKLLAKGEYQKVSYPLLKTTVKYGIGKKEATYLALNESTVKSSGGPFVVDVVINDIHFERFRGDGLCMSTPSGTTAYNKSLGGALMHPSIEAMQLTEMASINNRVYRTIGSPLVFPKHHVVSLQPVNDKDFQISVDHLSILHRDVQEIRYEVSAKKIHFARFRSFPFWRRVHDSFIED
Procedure: Another important parameter to select the chemical probe is that it retains its binding properties. The potency of ligands 2–5 as inhibitors of recombinant LmNADK1 in vitro were determined using the coupling assay described previously.
Activity was measured at 30 °C in 50 mM Bis-Tris pH 7.0, 2 mM sodium citrate, 1 mM MgCl2. Reaction mixtures contained 0–2 mM NAD, 4 mM MgATP, 5 mM Glucose 6-phosphate, 1 U/mL Glucose 6-phosphate dehydrogenase and 0.1 µM LmNADK1. Steady state rate constants (kss) were calculated by fitting the initial (first 500–1000 s) linear part of the NADP production time courses per NADK. Inhibitors were tested at 4 concentrations: 0, 10, 25 or 50 µM and Ki values were determined using the competitive inhibition equation, kss = kcat × NAD/(KM × (1 + [inhibitor]/Ki) + NAD), with GraFit software (v 7.0.3).
Figure 5 Determination of inhibition constants of compounds 1–5. Inhibitor concentrations were 0 (circles), 10 (triangles), 25 (squares) and 50 (stars) µM. Secondary plots (kss as a function of initial NAD concentration) were fitted assuming a competitive inhibition using GraFit software (v 7.0.3) and are presented here as double reciprocal plots. […] TEXT PRINTED IN THE PICTURE: NKI1: Ki (μM): 17.2 | 2: Ki (μM): 347 | 3: Ki (μM): 52.2 | 4: Ki (μM): 23.8 | 5: Ki (μM): 5.6

[2] = molecular target: T2, crystallized LmNADK1 (Listeria monocytogenes serovar 1/2a, UniProt Q8Y8D7); assay: X-ray crystallography of soaked LmNADK1 crystals; format: binding; details: soaking procedure; structures refined to 2.2-2.4 Å
T2 construct: made in house
T2 sequence (Q8Y8D7 1-264): T1 sequence (Q8Y8D7 1-264)
Procedure: A prerequisite to use a chemical probe is that it retains its binding affinity for its target. The binding properties of the four synthesized derivatives 2–5 were analyzed by X-ray crystallography. We checked the binding properties of these new di-adenosine derivatives by determining their complex with crystallized LmNADK1. The soaking procedure described previously for inhibitor 1 [18] was used to obtain crystals of the target in complex with compounds 2-5. The X-ray structures were solved by molecular replacement using PDB6RGC [18] as a starting template and refined to 2.2–2.4 Å resolution.

[3] = system: S. aureus; design: method as in PMID 32017533; details: including antibiotic-resistant strains; cited from earlier work

Row | Ki [1] | inhibitory potency compared to inhibitor 1 (NKI1) [1] | complex formation / binding mode with crystallized LmNADK1 [2] | SMILES | activity in mice infected with S. aureus [3]
1 | 5.6 µM | slightly increased | very similar to that of NKI1 | NCCCN(CC#Cc1nc2c(N)ncnc2n1C1OC(CO)C(O)C1O)CC1OC(n2cnc3c(N)ncnc32)C(O)C1O (centres unmarked) [Compound 5, 5’-[N-3-Aminopropyl-N-(3-(adenosin-8-yl)propargyl)amino]-5’-deoxyadenosine] | 
2 | 17.2 µM |  |  | Nc1ncnc2c1ncn2C1OC(COCC#Cc2nc3c(N)ncnc3n2C2OC(CO)C(O)C2O)C(O)C1O (centres unmarked) [NKI1] | active in mice infected with S. aureus
3 | 23.8 µM | slightly reduced inhibitory potency | very similar to that of NKI1 | NCCCC(=O)NCC1OC(n2c(C#CCOCC3OC(n4cnc5c(N)ncnc54)C(O)C3O)nc3c(N)ncnc32)C(O)C1O (centres unmarked) [Compound 4, 5’-O-[3-(5’-(4-Aminobutylamido)-5’-deoxy-adenosin-8-yl)prop-2-yn-1-yl]-adenosine] | 
4 | 347 µM | sharp decrease in inhibitory potency | led to a complex with the target | NCCNc1ncnc2c1ncn2C1OC(COCC#Cc2nc3c(N)ncnc3n2C2OC(CO)C(O)C2O)C(O)C1O (centres unmarked) [Compound 2, 8-[3-(N^6-2-Aminoethyl-5’-O-adenosinyl)propargyl]adenosine] | 
5 | 52.2 µM | sharp decrease in inhibitory potency | failed to yield complex | NCCCCNc1ncnc2c1ncn2C1OC(COCC#Cc2nc3c(N)ncnc3n2C2OC(CO)C(O)C2O)C(O)C1O (centres unmarked) [Compound 3, 8-[3-(N^6-4-Aminobutyl-5’-O-adenosinyl)propargyl]adenosine] | 
